Assay results: article PMC5826917, “A small molecule inhibitor of Nicotinamide N-methyltransferase for the treatment of metabolic disorders” (Scientific Reports, 2018)

Columns and labels:
in vivo = details: male, db/db (BKS.Cg- + Leprdb/ + Leprdb/OlaHsd), mouse, in vivo, JBSNF-000088 (μM)
Protocol: (§1) Samples for MNA were analyzed employing a fit-for-purpose LC-MS/MS method. PE-Sciex API-4000 triple quadrupole (PerkinElmerSciex Instruments, Boston, MA) mass spectrometer was employed for this analysis. Samples (5 µL) were injected onto Kinetex HILIC (50 × 4.6 mm, 2.6 µm; Phenomenex, Torrance, CA, USA) column connected to Shimadzu VP (Shimadzu, Japan) LC system. The gradient mobile phase mixture of 0.2% formic acid and acetonitrile was delivered at a flow rate of 0.45 ml min-1 into the mass spectrometer electrospray ionization (ESI) chamber. Quantitation was achieved by MS/MS detection in positive ion mode for MNA and internal standard (d4–MNA). Detection of the ions was performed in the multiple reaction monitoring (MRM) mode, monitoring the transition of the m/z 137 precursor ion to the m/z 92 product ion for MNA and m/z 141 precursor ion to the m/z 84 product ion for d4-MNA (internal standard).
(§2) A simple protein precipitation extraction method was followed for extraction of N-methylnicotinamide from plasma and various tissue homogenate samples. The tissue samples were homogenized with 1:3 proportions of phosphate buffer saline (PBS) and this homogenate was used for N-Methylnicotinamide determinations. To an aliquot of ~50 μL of plasma/ liver homogenate/ adipose tissue homogenate samples ~300 µl of acetonitrile containing IS (d4-MNA) solution was added, followed by vortex for ~3 minutes and centrifuged for 10 minutes at 14,000 rpm. The supernatant was separated and transferred to pre-labeled HPLC vials and analyzed by LC-MS/MS system.
(§3) Samples for methylated JBSNF-000088 were analyzed employing a fit-for-purpose LC-MS/MS method. PE-Sciex API-5500 triple quadrupole (PerkinElmerSciex Instruments, Boston, MA) mass spectrometer was employed for this analysis. Samples (2 µL) were injected onto Atlantis dC18 (50 × 4.6 mm, 3 µm; Waters, Milford, MA, USA) column connected to Shimadzu VP (Shimadzu, Japan) LC system. The gradient mobile phase mixture of 0.2% formic acid and acetonitrile was delivered at a flow rate of 0.9 mL min-1 into the mass spectrometer electrospray ionization (ESI) chamber. Quantitation was achieved by MS/MS detection in positive ion mode for methylated JBSNF-000088 and internal standard (Tolbutamide). Detection of the ions was performed in the multiple reaction monitoring (MRM) mode, monitoring the transition of the m/z 168 precursor ion to the m/z 128.8, product ion for MNA and m/z 271 precursor ion to the m/z 91 product ion for tolbutamide (internal standard).
(§4) Male C57BL6/N (Vivo Bio Tech Ltd, India), ob/ob (B6.V-Lepob/OlaHsd) and its lean control (Envigo laboratories Inc, USA) and db/db (BKS.Cg- + Leprdb/ + Leprdb/OlaHsd) and its lean control (Envigo laboratories Inc, USA) were housed in individually ventilated cages (n = 5/cage) under standard laboratory conditions. The study room environment was maintained at a temperature of 21–24 °C and, relative humidity at 40–70%. The animal rooms were maintained under 12 h light and dark cycle. Animals were provided with ad libitum access to water and food (except where noted otherwise, e.g. during fasting prior for glucose tolerance tests, fasting prior to terminal sacrifice). Animals were acclimatized for 1 week before initiation of studies. For Diet induced obesity (DIO) mice study, C57BL6/N mice were maintained on rodents chow diet (Teklad; Harlan) or HFD (60% Kcal; Research diet) for 14 weeks before study initiation and throughout the study period. ob/ob and db/db mice and their lean controls were maintained on rodents chow diet (Teklad; Harlan). All the experiments were approved by Institutional Animal Ethics Committee (IAEC) of Jubilant Biosys Ltd, India.
(§5) Lean control + Vehicle and HFD + Vehicle Control groups (G1 and G2) mice were administered with vehicle.

db/db mice = assay: Chronic efficacy study in db/db mice; details: db/db mice
Protocol: as §1, §2, §3, §4, §5

[1] = target: Acetylcholinesterase (AChE) (Homo sapiens, UniProt P22303); assay: Selectivity panel: AChE; assay type: biochemical; details: read-out: I% (antagonistic or inhibitory), AChE
Protocol: (§6) Supplement 41598_2018_22081_MOESM1_ESM.docx, table 2: Supplementary table 2: Selectivity profile of JBSNF-000088 (at 10 µM) vs a panel of 34 receptors, channels and enzymes. | column: I% (antagonistic or inhibitory)

[2] = target: Adenosine Receptor 1 (ADORA1) (Homo sapiens, UniProt P30542); assay: Selectivity panel: ADORA1; assay type: cell-based
[3] = target: Adrenoreceptor beta 2 (ADRB2) (Homo sapiens, UniProt P07550); assay: Selectivity panel: ADRB2; assay type: cell-based
[4] = system: Glycine Receptor (strychnine-sensitive); assay: Selectivity panel: glycine receptor; assay type: binding; details: 10 µM
[5] = target: Histamine Receptor 1 (H1) (Homo sapiens, UniProt P35367); assay: Selectivity panel: H1; assay type: cell-based
[6] = target: Histamine Receptor 2 (H2) (Homo sapiens, UniProt P25021); assay: Selectivity panel: H2; assay type: cell-based
[7] = target: Mono Amine Oxydase A (MAO-A) (Homo sapiens, UniProt P21397); assay: Selectivity panel: MAO-A; assay type: biochemical; details: read-out: I% (antagonistic or inhibitory), MAO-A
[8] = target: Muscarinic Receptor 2 (CHRM2) (Homo sapiens, UniProt P08172); assay: Selectivity panel: CHRM2; assay type: cell-based
Protocol: Supplement 41598_2018_22081_MOESM1_ESM.docx, table 2: Supplementary table 2: Selectivity profile of JBSNF-000088 (at 10 µM) vs a panel of 34 receptors, channels and enzymes. | column: E% (agonistic); I% (antagonistic or inhibitory)

[9] = system: Phencyclidine Receptor (PCP); assay: Selectivity panel: PCP; assay type: binding; details: 10 µM
Protocol: as §6

hERG = hERG (Homo sapiens, UniProt Q12809); details: 10 µM
[10] = 0.5 h
in vitro = details: human, hepatocytes
NaV1.5 = NaV1.5 (Homo sapiens, UniProt Q14524); assay: NaV1.5 assay; details: tested at 30 µM, result printed @ 10 µM; data not shown
Chain of NaV1.5 (Q14524 whole entry): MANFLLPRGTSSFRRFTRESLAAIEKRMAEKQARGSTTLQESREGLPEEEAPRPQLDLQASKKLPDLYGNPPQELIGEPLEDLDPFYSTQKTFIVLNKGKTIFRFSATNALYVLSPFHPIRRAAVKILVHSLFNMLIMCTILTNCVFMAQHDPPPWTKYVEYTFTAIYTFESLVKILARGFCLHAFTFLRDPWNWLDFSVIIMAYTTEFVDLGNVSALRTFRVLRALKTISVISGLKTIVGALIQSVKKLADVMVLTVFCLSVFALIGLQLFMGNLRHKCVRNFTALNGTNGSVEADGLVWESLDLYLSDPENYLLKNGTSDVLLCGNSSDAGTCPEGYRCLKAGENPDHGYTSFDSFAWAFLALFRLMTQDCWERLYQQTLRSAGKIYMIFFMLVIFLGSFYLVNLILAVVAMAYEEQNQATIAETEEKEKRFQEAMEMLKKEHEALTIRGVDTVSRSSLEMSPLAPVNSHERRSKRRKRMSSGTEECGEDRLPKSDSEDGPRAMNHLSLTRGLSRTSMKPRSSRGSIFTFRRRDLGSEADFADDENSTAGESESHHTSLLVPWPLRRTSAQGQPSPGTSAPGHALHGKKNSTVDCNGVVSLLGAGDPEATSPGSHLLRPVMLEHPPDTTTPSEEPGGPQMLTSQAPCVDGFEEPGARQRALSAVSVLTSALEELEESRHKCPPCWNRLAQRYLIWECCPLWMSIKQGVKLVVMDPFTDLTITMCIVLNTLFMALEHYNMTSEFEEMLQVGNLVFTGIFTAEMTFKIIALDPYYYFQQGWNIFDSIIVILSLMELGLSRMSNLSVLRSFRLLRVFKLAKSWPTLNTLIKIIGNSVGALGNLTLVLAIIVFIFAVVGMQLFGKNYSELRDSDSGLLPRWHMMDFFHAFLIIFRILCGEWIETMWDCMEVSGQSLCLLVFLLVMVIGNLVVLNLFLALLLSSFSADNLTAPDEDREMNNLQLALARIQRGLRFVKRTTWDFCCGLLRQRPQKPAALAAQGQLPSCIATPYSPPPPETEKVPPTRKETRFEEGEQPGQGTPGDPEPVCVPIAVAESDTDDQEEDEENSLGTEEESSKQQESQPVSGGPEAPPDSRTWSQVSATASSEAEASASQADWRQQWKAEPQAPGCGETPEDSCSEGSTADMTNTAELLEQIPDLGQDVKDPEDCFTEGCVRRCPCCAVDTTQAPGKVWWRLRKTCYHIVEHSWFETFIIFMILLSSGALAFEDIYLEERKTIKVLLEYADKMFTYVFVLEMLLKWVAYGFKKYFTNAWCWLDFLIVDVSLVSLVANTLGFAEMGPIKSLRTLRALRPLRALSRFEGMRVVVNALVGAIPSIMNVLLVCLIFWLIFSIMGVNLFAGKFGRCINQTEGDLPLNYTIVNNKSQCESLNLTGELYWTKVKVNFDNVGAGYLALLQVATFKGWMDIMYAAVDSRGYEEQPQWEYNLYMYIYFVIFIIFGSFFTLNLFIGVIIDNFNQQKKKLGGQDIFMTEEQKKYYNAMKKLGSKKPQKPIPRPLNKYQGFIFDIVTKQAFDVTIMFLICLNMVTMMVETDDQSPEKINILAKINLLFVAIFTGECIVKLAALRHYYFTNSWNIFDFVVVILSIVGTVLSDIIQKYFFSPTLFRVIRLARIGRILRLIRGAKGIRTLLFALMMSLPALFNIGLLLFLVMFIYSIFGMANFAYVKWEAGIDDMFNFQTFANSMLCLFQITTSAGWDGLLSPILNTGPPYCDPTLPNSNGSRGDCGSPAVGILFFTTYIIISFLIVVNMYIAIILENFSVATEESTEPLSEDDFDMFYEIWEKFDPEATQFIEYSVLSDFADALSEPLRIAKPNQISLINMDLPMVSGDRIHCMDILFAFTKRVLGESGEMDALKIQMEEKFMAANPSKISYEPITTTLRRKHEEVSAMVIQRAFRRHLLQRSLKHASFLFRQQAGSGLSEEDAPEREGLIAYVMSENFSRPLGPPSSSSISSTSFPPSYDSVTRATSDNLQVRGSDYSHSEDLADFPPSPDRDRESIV

Chain of Adrenoreceptor beta 2 (ADRB2) (P07550 whole entry): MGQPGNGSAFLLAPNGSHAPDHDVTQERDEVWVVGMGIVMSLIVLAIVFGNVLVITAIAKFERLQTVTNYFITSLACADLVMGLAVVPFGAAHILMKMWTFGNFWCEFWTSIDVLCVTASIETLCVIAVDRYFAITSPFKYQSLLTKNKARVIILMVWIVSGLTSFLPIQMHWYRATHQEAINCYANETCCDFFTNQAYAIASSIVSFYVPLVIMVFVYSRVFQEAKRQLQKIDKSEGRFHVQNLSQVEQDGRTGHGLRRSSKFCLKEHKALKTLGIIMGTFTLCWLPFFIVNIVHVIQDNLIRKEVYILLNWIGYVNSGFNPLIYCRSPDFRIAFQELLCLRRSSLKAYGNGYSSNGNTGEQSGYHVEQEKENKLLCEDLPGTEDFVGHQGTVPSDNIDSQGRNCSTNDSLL
Chain of Adenosine Receptor 1 (ADORA1) (P30542 whole entry): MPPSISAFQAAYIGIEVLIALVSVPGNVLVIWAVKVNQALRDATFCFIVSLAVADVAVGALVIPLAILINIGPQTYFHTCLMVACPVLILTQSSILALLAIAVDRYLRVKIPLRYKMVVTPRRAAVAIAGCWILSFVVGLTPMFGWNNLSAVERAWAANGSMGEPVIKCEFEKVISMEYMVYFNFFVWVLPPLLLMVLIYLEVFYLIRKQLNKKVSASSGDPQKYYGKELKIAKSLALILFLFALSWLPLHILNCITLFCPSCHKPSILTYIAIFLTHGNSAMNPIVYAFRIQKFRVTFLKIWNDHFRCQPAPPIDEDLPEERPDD
Chain of Histamine Receptor 1 (H1) (P35367 whole entry): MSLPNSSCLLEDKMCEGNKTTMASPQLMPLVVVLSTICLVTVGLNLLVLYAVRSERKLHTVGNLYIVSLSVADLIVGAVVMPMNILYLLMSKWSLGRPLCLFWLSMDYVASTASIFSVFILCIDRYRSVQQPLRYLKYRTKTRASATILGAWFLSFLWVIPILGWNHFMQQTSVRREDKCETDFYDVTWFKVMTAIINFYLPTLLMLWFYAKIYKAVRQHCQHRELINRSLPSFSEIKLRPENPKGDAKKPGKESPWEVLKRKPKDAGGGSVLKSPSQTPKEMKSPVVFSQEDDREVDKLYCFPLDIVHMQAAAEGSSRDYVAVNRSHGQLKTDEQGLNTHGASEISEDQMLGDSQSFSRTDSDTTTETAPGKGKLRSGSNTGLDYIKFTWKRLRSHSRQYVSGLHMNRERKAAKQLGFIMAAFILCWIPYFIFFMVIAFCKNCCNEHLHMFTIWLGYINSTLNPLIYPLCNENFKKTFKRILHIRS
Chain of Histamine Receptor 2 (H2) (P25021 whole entry): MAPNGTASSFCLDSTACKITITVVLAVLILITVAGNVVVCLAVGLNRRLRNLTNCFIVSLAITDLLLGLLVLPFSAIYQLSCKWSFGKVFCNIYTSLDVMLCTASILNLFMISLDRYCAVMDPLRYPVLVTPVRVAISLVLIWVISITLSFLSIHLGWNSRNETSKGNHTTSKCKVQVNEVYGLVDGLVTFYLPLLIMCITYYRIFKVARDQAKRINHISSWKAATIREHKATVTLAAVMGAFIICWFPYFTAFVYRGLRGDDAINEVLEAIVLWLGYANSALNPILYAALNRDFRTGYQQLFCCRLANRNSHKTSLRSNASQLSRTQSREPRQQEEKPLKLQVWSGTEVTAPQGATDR
Chain of Muscarinic Receptor 2 (CHRM2) (P08172 whole entry): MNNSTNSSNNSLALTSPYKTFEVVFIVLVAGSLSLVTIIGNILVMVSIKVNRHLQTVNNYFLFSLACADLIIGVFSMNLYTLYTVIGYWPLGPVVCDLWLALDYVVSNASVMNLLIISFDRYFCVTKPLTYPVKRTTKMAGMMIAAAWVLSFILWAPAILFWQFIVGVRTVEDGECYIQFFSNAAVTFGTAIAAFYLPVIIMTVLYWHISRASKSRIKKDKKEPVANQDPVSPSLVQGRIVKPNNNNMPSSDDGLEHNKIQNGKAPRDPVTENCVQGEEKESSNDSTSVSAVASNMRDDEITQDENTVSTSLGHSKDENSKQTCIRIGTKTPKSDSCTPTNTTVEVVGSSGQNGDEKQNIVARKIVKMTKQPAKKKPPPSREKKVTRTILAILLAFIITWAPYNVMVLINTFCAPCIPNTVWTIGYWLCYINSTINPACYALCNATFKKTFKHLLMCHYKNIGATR
Chain of Mono Amine Oxydase A (MAO-A) (P21397 whole entry): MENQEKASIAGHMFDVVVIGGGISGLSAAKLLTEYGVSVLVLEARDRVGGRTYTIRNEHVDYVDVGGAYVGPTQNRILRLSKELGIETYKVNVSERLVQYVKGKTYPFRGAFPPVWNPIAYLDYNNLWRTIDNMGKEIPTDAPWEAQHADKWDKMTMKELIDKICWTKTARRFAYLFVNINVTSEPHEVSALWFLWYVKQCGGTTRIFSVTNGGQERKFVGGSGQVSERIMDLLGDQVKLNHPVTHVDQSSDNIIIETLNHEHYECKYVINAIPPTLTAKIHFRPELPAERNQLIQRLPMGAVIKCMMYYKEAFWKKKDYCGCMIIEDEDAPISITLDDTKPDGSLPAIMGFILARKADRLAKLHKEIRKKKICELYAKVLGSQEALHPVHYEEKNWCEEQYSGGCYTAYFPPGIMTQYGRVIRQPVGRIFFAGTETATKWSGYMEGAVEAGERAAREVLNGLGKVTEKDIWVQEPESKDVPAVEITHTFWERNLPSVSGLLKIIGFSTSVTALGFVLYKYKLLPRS

In the case of `COc1ccc(C(N)=O)cn1` [JBSNF-000088, 6-methoxynicotinamide], the concentration at 1 h (in vivo; plasma) is reported as 275 ± 39 µM, the concentration at 1 h (in vivo; subcutaneous fat) is reported as 6.94 ± 1.52 µM and the concentration at 1 h (in vivo; visceral fat) is reported as 7.14 ± 2.18 µM. The HOMA-IR (db/db mice) was “no change”, the body weight gain (db/db mice; 50 mg kg^−1 bid, four weeks, vs vehicle) was “gained comparable weight” and the “MNA levels in liver and visceral WAT and s/c fat” value (db/db mice; 30 days, p < 0.0001 vs vehicle control) was “statistically significant reduction”. For the same molecule, the fed blood glucose (db/db mice; day 21, p < 0.001 vs vehicle control) was “moderate but statistically significant reduction”, the glucose tolerance (db/db mice; day 26, not statistically significant) was “trend towards improvement” and the “Fed insulin levels on days 7, 14 and 21 and fasting insulin levels on day 28” value (db/db mice; vs vehicle) was “not different”. For the same molecule, the cumulative food intake (db/db mice; vs vehicle) was “comparable”, the “AUC blood glucose (OGTT)” value (db/db mice; vs vehicle control) was “Slightly lower” and the inhibition at 10 µM [1] was 2%. For the same molecule, the “E% (agonistic), ADORA1” value ([2]; 10 µM) was -3%, the inhibition at 10 µM ([2]; read-out: I% (antagonistic or inhibitory), ADORA1) was -1% and the “E% (agonistic), ADRB2” value ([3]; 10 µM) was 1%. The inhibition at 10 µM ([3]; read-out: I% (antagonistic or inhibitory), ADRB2) was 1%, the “I% (antagonistic or inhibitory), Glycine Receptor (strychnine-sensitive)” value [4] was -7% and the “E% (agonistic), H1” value ([5]; 10 µM) was -2%. The inhibition at 10 µM ([5]; read-out: I% (antagonistic or inhibitory), H1) was -5%, the “E% (agonistic), H2” value ([6]; 10 µM) was -1% and the inhibition at 10 µM ([6]; read-out: I% (antagonistic or inhibitory), H2) was 6%. For the same molecule, the inhibition at 10 µM [7] was -1%, the “E% (agonistic), CHRM2” value ([8]; 10 µM) was 13% and the inhibition at 10 µM ([8]; read-out: I% (antagonistic or inhibitory), CHRM2) was 3%. For the same molecule, the “I% (antagonistic or inhibitory), PCP” value [9] was -11%, the hERG inhibition (hERG) was less than 30% and the “Metabolic stability human microsomes (% remaining)” value [10] was 90%. The remaining at 0.5 h (in vitro) was greater than 70% and the NaV1.5 inhibition (NaV1.5) was less than 30%.
